Columns and labels:
Assay type in all cases: cell-based, human
GFP-labeled PC3 cells = assay: Real-time imaging of cell migration; conditions: starting at 6 hr of treatment
Description: Real-time imaging of GFP-labeled PC3 cells was performed in poly-D-lysine-coated chamber cover glass slides (Lab-Tek). PC3 GFP cells were plated and allowed to adhere for 24 hr. Wells were wounded with a P200 pipette tip. The chamber slides were imaged with an IX81 Olympus wide-field fluorescence microscope equipped with a CO2- and temperature-controlled chamber and time-lapse tracking system. Images from DIC and GFP channels were taken every 2 min and processed using ImageJ and analyzed for cell migration with Manual Tracking, using local maximum centering correction to maintain a centroid xy coordinate for each cell per frame over time. Tracking data was subsequently processed with the Chemotaxis and Migration tool from ibidi to create xy coordinate plots, velocity, and distance measurements.

Snail1, LEF1 and Twist1 = assay: Snail1 immunocytochemistry, LEF1/Twist1 Western blot and qPCR (YB1 target genes); conditions: PC3 cells, 200 nM
Description: (§1) Western blot analysis was performed as previously described (Hsieh et al., Cancer Cell 17:249-261 (2010)) with antibodies specific to phospho-AKT^S473 (Cell Signaling), AKT (Cell Signaling), phospho-p70S6K^T389 (Cell Signaling), phospho-rpS6^S240/244 (Cell Signaling), rpS6 (Cell Signaling), phospho-4EBP1^T37/46 (Cell Signaling), 4EBP1 (Cell Signaling), 4EBP2 (Cell Signaling), YB1 (Cell Signaling), CD44 (Cell Signaling), LEF1 (Cell Signaling), PTEN (Cell Signaling), eEF2 (Cell Signaling), GAPDH (Cell Signaling), vimentin (BD Biosciences), eIF4E (BD Biosciences), Flag (Sigma), β-actin (Sigma), MTA1 (Santa Cruz Biotechnology), Twist (Santa Cruz Biotechnology), rpL28 (Santa Cruz Biotechnology), HA (Covance) and rictor (Bethyl Laboratory).
RNA was isolated using the manufacturer's protocol for RNA extraction with TRIzol Reagent (Invitrogen) using the Pure Link RNA mini kit (Invitrogen). RNA was DNase-treated with Pure Link Dnase (Invitrogen). DNase-treated RNA was transcribed to cDNA with SuperScript III First-Strand Synthesis System for RT-PCR (Invitrogen), and 1 μl of cDNA was used to run a SYBR green detection qPCR assay (SYBR Green Supermix and MyiQ2, Biorad). […]
Appropriately transfected or treated PC3 cells were plated on a poly-L-lysine-coated chamber slide (Lab-Tek) and cultured for 48 hr. […] Image capture and quantification were completed as described below (see “Immunofluorescence”).

PC3 cells [1] = assay: Matrigel invasion assay; conditions: 6-hr pre-treatment followed by 6 hr of cell invasion
Description: BioCoat Matrigel Invasion Chambers (modified Boyden Chamber Assay; BD Biosciences) were used according to the manufacturer's instructions.

[2] = system: MDA-MB-361, SKOV3 and ACHN cells; assay: Western blot and qPCR of 4-gene invasion signature in metastatic cell lines; conditions: MDA-MB-361, SKOV3, ACHN cells, 48-hour treatment, 200 nM
Description: as §1
RNA was isolated using the manufacturer's protocol for RNA extraction with TRIzol Reagent (Invitrogen) using the Pure Link RNA mini kit (Invitrogen). RNA was DNase-treated with Pure Link Dnase (Invitrogen). DNase-treated RNA was transcribed to cDNA with SuperScript III First-Strand Synthesis System for RT-PCR (Invitrogen), and 1 μl of cDNA was used to run a SYBR green detection qPCR assay (SYBR Green Supermix and MyiQ2, Biorad). Primers were used at 200 nM.

LNCaP and A498 cells = assay: Apoptosis analysis (Annexin V/PI); conditions: 200 nM, 48 hours
Description: Appropriately treated LNCaP and A498 cells were labeled with Annexin V-FITC (BD Biosciences) and propidium iodide (Sigma) following the manufacturer's instructions. PI/Annexin data was acquired using a BD FACS Caliber (BD Biosciences) and analyzed with FlowJo (v.9.1).

PC3 cells [3] = assay: Polysome analysis; conditions: 100 nM, 3-hour
Description: Cells were re-suspended in PBS containing 100 μg ml^−1 cycloheximide (Sigma) and incubated on ice for 10 min. Cells were centrifuged at 300 g for 5 min at 4° C. and lysed in 10 mM Tris-HCl pH 8, 140 mM NaCl, 5 mM MgCl2, 640 U ml^−1 Rnasin, 0.05% NP-40, 250 μg ml^−1 cycloheximide, 20 mM DTT, and protease inhibitors. Samples were incubated for 20 min on ice, then centrifuged once for 5 min at 3,300 g and once for 5 min at 9,300 g, isolating the supernatant after each centrifugation. Lysates were loaded onto 10-50% sucrose gradients containing 0.1 mg ml^−1 heparin and 2 mM DTT and centrifuged at 37,000 r.p.m. for 2.5 hr at 4° C. The sample was subsequently fractionated on a gradient fractionation system (ISCO). RNA was extracted from all fractions and run on a TBE-agarose gel to visualize 18S and 28S rRNA.

[4] = system: YB1, MTA1, vimentin, and CD44; assay: Western blot and qPCR of mTOR-sensitive invasion genes in PC3 cells; conditions: starting at 6 hr of treatment

`CC(C)n1nc(-c2ccc3oc(N)nc3c2)c2c(N)ncnc21` [ATP site inhibitor of mTOR] was tested, and the cancer cell migration (GFP-labeled PC3 cells) was “inhibited”, the “protein levels but not mRNA levels of YB1 target genes (Snail1, LEF1, Twist1)” value (Snail1, LEF1 and Twist1) was “decreases” and the “invasive potential of PC3 prostate cancer cells” value (PC3 cells [1]) was “decreased”. The “4-gene invasion signature response in metastatic cell lines” value [2] was “responsive”, the “programmed cell death in multiple cancer cell lines” value (LNCaP and A498 cells) was “induced” and the “association of YB1 and rpS19 mRNAs in polysome fractions” value (PC3 cells [3]) was “differential association”. For the same compound, the “β-actin mRNA association in polysome fractions” value (PC3 cells [3]) was “no change” and the “expression of YB1, MTA1, vimentin, and CD44 at the protein but not transcript level” value [4] was “selective decrease”.

— patent publication US20190136321A1, “USE OF TRANSLATIONAL PROFILING TO IDENTIFY TARGET MOLECULES FOR THERAPEUTIC TREATMENT” (The Regents of The University of California, priority 2013, published 2019)
